Values joined by “and” are separate entries in the source; they are usually repeats but may differ in a detail not shown here. Equal values may be shown once. Toxic doses and inconclusive results are not listed.
System: B6C3F1 mice, B16 melanoma ip, median survival T/C
Assay: NCI In Vivo Anticancer Drug Screen. Data for tumor model B16 Melanoma (intraperitoneal) in B6C3F1 mice
Conditions: endpoint: median survival time, higher = longer survival
Summary of the method: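 Readout: survival or tumor size in treated mice relative to vehicle controls (T/C). Model uses transplantable tumors grown in mice.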

[1] = dose: 3.12 mg/kg/injection, schedule: Q01DX009 (ip), vehicle: water
[2] = dose: 6.25 mg/kg/injection, schedule: Q01DX009 (ip), vehicle: water
[3] = dose: 12.5 mg/kg/injection, schedule: Q01DX009 (ip), vehicle: water
[4] = dose: 12.5 mg/kg/injection, schedule: Q01DX009 (ip), vehicle: Klucel (hydroxypropylcellulose) (HPC)
[5] = dose: 25.0 mg/kg/injection, schedule: Q01DX009 (ip), vehicle: Klucel (hydroxypropylcellulose) (HPC)
[6] = dose: 25.0 mg/kg/injection, schedule: Q01DX009 (ip), vehicle: water
[7] = dose: 50.0 mg/kg/injection, schedule: Q01DX009 (ip), vehicle: Klucel (hydroxypropylcellulose) (HPC)
[8] = dose: 50.0 mg/kg/injection, schedule: Q01DX009 (ip), vehicle: water
[9] = dose: 100.0 mg/kg/injection, schedule: Q01DX009 (ip), vehicle: Klucel (hydroxypropylcellulose) (HPC)
[10] = dose: 200.0 mg/kg/injection, schedule: Q01DX009 (ip), vehicle: Klucel (hydroxypropylcellulose) (HPC)
[11] = dose: 12.5 mg/kg/injection, schedule: Q01DX009 (ip), vehicle: saline with Tween-80
[12] = dose: 25.0 mg/kg/injection, schedule: Q01DX009 (ip), vehicle: saline with Tween-80
[13] = dose: 50.0 mg/kg/injection, schedule: Q01DX009 (ip), vehicle: saline with Tween-80
[14] = dose: 100.0 mg/kg/injection, schedule: Q01DX009 (ip), vehicle: saline with Tween-80
[15] = dose: 200.0 mg/kg/injection, schedule: Q01DX009 (ip), vehicle: saline with Tween-80
[16] = dose: 3.12 mg/kg/injection, schedule: Q01DX009 (ip), vehicle: saline with Tween-80
[17] = dose: 6.25 mg/kg/injection, schedule: Q01DX009 (ip), vehicle: saline with Tween-80
[18] = dose: 50.0 mg/kg/injection, schedule: Q01DX009 (ip), vehicle: saline
[19] = dose: 100.0 mg/kg/injection, schedule: Q01DX009 (ip), vehicle: saline
[20] = dose: 200.0 mg/kg/injection, schedule: Q01DX009 (ip), vehicle: saline
[21] = dose: 12.5 mg/kg/injection, schedule: Q01DX009 (ip), vehicle: saline
[22] = dose: 3.0 mg/kg/injection, schedule: Q01DX009 (ip), vehicle: saline
[23] = dose: 400.0 mg/kg/injection, schedule: Q01DX009 (ip), vehicle: Klucel (hydroxypropylcellulose) (HPC)

## O=NN(CCCl)C(=O)NCCO
dose: 1.5 mg/kg/injection, schedule: Q01DX009 (ip), vehicle: water
  T/C: 102 % of control
dose: 1.56 mg/kg/injection, schedule: Q01DX009 (ip), vehicle: water
  T/C: 122 % of control
dose: 3.0 mg/kg/injection, schedule: Q01DX009 (ip), vehicle: water
  T/C: 104 % of control
[1]
  T/C: 189 % of control
dose: 6.0 mg/kg/injection, schedule: Q01DX009 (ip), vehicle: water
  T/C: 105 % of control
[2]
  T/C: 201 % of control
dose: 12.0 mg/kg/injection, schedule: Q01DX009 (ip), vehicle: water
  T/C: 109 % of control
[3]
  T/C: 194 % of control

## Nc1ccc(C(=O)O)cc1
dose: 3.12 mg/kg/injection, schedule: Q01DX009 (ip), vehicle: Klucel (hydroxypropylcellulose) (HPC)
  T/C: 100 % of control and 104 % of control
dose: 6.25 mg/kg/injection, schedule: Q01DX009 (ip), vehicle: Klucel (hydroxypropylcellulose) (HPC)
  T/C: 114 % of control and 99 % of control and 103 % of control
[4]
  T/C: 114 % of control and 101 % of control
[5]
  T/C: 112 % of control and 90 % of control and 107 % of control
[6]
  T/C: 98 % of control
[7]
  T/C: 100 % of control
[8]
  T/C: 101 % of control
[9]
  T/C: 117 % of control
dose: 100.0 mg/kg/injection, schedule: Q01DX009 (ip), vehicle: water
  T/C: 102 % of control
[10]
  T/C: 105 % of control

## Cc1ccc(NC(=O)Oc2ccc(Br)cc2Br)c([N+](=O)[O-])c1
[11]
  T/C: 105 % of control
[12]
  T/C: 104 % of control
[13]
  T/C: 105 % of control
[14]
  T/C: 101 % of control
[15]
  T/C: 103 % of control
dose: 400.0 mg/kg/injection, schedule: Q01DX009 (ip), vehicle: saline with Tween-80
  T/C: 107 % of control

## C/C=C(\C)C(=O)N[C@@H](c1ccccc1)[C@@H](O)C(=O)OC1C[C@@]2(O)[C@@H](OC(=O)c3ccccc3)[C@@H]3[C@]4(OC(C)=O)CO[C@@H]4C[C@H](O)[C@@]3(C)C(=O)[C@H](OC(C)=O)C(=C1C)C2(C)C (some centres not stated)
dose: 0.5 mg/kg/injection, schedule: Q01DX009 (ip), vehicle: saline + Tween-80 + alcohol
  T/C: 113 % of control
dose: 1.0 mg/kg/injection, schedule: Q01DX009 (ip), vehicle: saline + Tween-80 + alcohol
  T/C: 106 % of control
dose: 4.0 mg/kg/injection, schedule: Q01DX009 (ip), vehicle: saline + Tween-80 + alcohol
  T/C: 172 % of control

## Cc1cc(C)c(-c2cc(O)c(C)cc2O)c(C)c1
[4]
  T/C: 99 % of control
[5]
  T/C: 101 % of control
[7]
  T/C: 103 % of control
[9]
  T/C: 99 % of control
[10]
  T/C: 100 % of control

## CCN1/C(=C/C(C)=C/c2sc3ccc4ccccc4c3[n+]2CC)Sc2ccc3ccccc3c21
dose: 0.02 mg/kg/injection, schedule: Q01DX009 (ip), vehicle: saline with Tween-80
  T/C: 95 % of control
dose: 0.05 mg/kg/injection, schedule: Q01DX009 (ip), vehicle: saline with Tween-80
  T/C: 106 % of control

## O=NNc1cnccn1
[1]
  T/C: 120 % of control and 103 % of control and 106 % of control
[2]
  T/C: 109 % of control and 110 % of control and 114 % of control
[3]
  T/C: 113 % of control
[6]
  T/C: 155 % of control and 158 % of control and 169 % of control
[8]
  T/C: 96 % of control

## C=C(C)C(=O)O[C@H]1CC2=C[C@@H](C[C@@]3(C)O[C@@H]3[C@H]3OC(=O)C(=C)[C@@H]31)OC2=O
dose: 3.75 mg/kg/injection, schedule: Q01DX009 (ip), vehicle: Klucel (hydroxypropylcellulose) (HPC)
  T/C: 101 % of control
dose: 7.5 mg/kg/injection, schedule: Q01DX009 (ip), vehicle: Klucel (hydroxypropylcellulose) (HPC)
  T/C: 107 % of control
dose: 15.0 mg/kg/injection, schedule: Q01DX009 (ip), vehicle: Klucel (hydroxypropylcellulose) (HPC)
  T/C: 103 % of control

## Nc1nc2c(ncn2C2OC(CO)C(O)C2N)c(=O)[nH]1 (configuration not stated)
[16]
  T/C: 97 % of control
[17]
  T/C: 90 % of control
[11]
  T/C: 107 % of control
[12]
  T/C: 112 % of control
[13]
  T/C: 97 % of control
[14]
  T/C: 107 % of control
[15]
  T/C: 104 % of control

## Clc1ccc(CN2COc3c(ccc4cccnc34)C2)cc1Cl
[11]
  T/C: 102 % of control
[12]
  T/C: 109 % of control
[13]
  T/C: 92 % of control

## CC(N)C(=O)NC(CC(N)=O)C(=O)O (configuration not stated)
[18]
  T/C: 103 % of control
[19]
  T/C: 94 % of control
[20]
  T/C: 97 % of control

## CC12C(=O)C=CCC1=CCC1C2CCC2(O)C(=O)OC3(C)C4CC5(C)C(COC16OC23C5C6=O)C(=O)O4 (configuration not stated)
[9]
  T/C: 93 % of control
[10]
  T/C: 98 % of control

## O=C1N(CC2CO2)CCN1CC1CO1 (configuration not stated)
[21]
  T/C: 117 % of control and 97 % of control
dose: 12.5 mg/kg/injection, schedule: Q01DX009 (ip), vehicle: suspension in saline
  T/C: 114 % of control
dose: 25.0 mg/kg/injection, schedule: Q01DX009 (ip), vehicle: saline
  T/C: 118 % of control and 107 % of control
dose: 25.0 mg/kg/injection, schedule: Q01DX009 (ip), vehicle: suspension in saline
  T/C: 124 % of control
[18]
  T/C: 115 % of control
dose: 50.0 mg/kg/injection, schedule: Q01DX009 (ip), vehicle: suspension in saline
  T/C: 165 % of control
dose: 100.0 mg/kg/injection, schedule: Q01DX009 (ip), vehicle: suspension in saline
  T/C: 90 % of control
[20]
  T/C: 122 % of control

## CC(C)(C)C1CCCCC1
[4]
  T/C: 97 % of control
[5]
  T/C: 92 % of control
[7]
  T/C: 88 % of control

## O=CC(O)C(O)C(O)C(O)C(=O)O.[NH-]C1CCCCC1[NH-].[Pt+2] (configuration not stated)
dose: 0.19 mg/kg/injection, schedule: Q01DX009 (ip), vehicle: saline
  T/C: 108 % of control
dose: 1.5 mg/kg/injection, schedule: Q01DX009 (ip), vehicle: saline
  T/C: 177 % of control
[22]
  T/C: 187 % of control

## O=c1n(CC2CO2)c(=O)n(CC2CO2)n1CC1CO1 (configuration not stated)
[22]
  T/C: 172 % of control
dose: 6.0 mg/kg/injection, schedule: Q01DX009 (ip), vehicle: saline
  T/C: 212 % of control
dose: 6.25 mg/kg/injection, schedule: Q01DX009 (ip), vehicle: saline
  T/C: 183 % of control
dose: 12.0 mg/kg/injection, schedule: Q01DX009 (ip), vehicle: saline
  T/C: 300 % of control
[21]
  T/C: 198 % of control

## NC(N)=O
[18]
  T/C: 99 % of control
[19]
  T/C: 100 % of control
[20]
  T/C: 106 % of control
dose: 400.0 mg/kg/injection, schedule: Q01DX009 (ip), vehicle: saline
  T/C: 95 % of control

## O=C(CCCN1CCC(C(O)c2ccc(F)cc2)CC1)c1ccc(F)cc1 (configuration not stated)
dose: 1.56 mg/kg/injection, schedule: Q01DX009 (ip), vehicle: saline with Tween-80
  T/C: 92 % of control
[16]
  T/C: 96 % of control
[17]
  T/C: 103 % of control
[11]
  T/C: 92 % of control

## CC(C)C(NC(=O)OC(C)(C)C)C(=O)ON1C(=O)CCC1=O (configuration not stated)
[13]
  T/C: 91 % of control
[14]
  T/C: 86 % of control

## CCCCCC(=O)O[C@]1(C(C)=O)CC[C@H]2[C@@H]3CCC4=CC(=O)CC[C@]4(C)[C@H]3CC[C@@]21C
[4]
  T/C: 97 % of control and 101 % of control
[5]
  T/C: 100 % of control and 104 % of control
[7]
  T/C: 96 % of control and 98 % of control
[9]
  T/C: 99 % of control and 100 % of control
[10]
  T/C: 97 % of control and 100 % of control
[23]
  T/C: 91 % of control and 97 % of control

## COc1cc2cc(c1Cl)N(C)C(=O)C[C@H](OC(=O)[C@H](C)N(C)C(C)=O)[C@]1(C)O[C@H]1[C@H](C)[C@@H]1C[C@@](O)(NC(=O)O1)[C@H](OC)C=C/C=C(\C)C2
dose: 1.0 micrograms/kg/injection, schedule: Q01DX009 (ip), vehicle: saline + alcohol
  T/C: 121 % of control
dose: 2.0 micrograms/kg/injection, schedule: Q01DX005 (iv), vehicle: saline + alcohol
  T/C: 107 % of control
dose: 4.0 micrograms/kg/injection, schedule: Q01DX005 (iv), vehicle: saline + alcohol
  T/C: 106 % of control
dose: 8.0 micrograms/kg/injection, schedule: Q01DX005 (iv), vehicle: saline + alcohol
  T/C: 100 % of control and 106 % of control
dose: 64.0 micrograms/kg/injection, schedule: Q01DX005 (iv), vehicle: saline + alcohol
  T/C: 112 % of control and 113 % of control
dose: 128.0 micrograms/kg/injection, schedule: Q01DX005 (iv), vehicle: saline + alcohol
  T/C: 120 % of control
dose: 256.0 micrograms/kg/injection, schedule: Q01DX005 (iv), vehicle: saline + alcohol
  T/C: 152 % of control

## CC(C)(C)OC(=O)NC(CCCNC(=O)OCc1ccccc1)C(=O)O (configuration not stated)
[9]
  T/C: 110 % of control
[10]
  T/C: 104 % of control
[23]
  T/C: 98 % of control
